Data reported in PubChem BioAssay (NCI).
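The concentration for 50% growth inhibition is given as GI50. TGI is the concentration that stops growth completely.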

Experiments:
Experiment in all cases: DTP human tumour cell line panel, 384-well format
[1] = test system: NCI/ADR-RES ovarian
[2] = test system: K-562 leukemia
[3] = test system: M14 melanoma
[4] = test system: OVCAR-4 ovarian
[5] = test system: SK-MEL-5 melanoma
[6] = test system: HCC-2998 colon
[7] = test system: HT29 colon
[8] = test system: OVCAR-8 ovarian
[9] = test system: OVCAR-3 ovarian
[10] = test system: SNB-75 CNS
[11] = test system: KM12 colon
[12] = test system: UACC-257 melanoma
[13] = test system: LOX IMVI melanoma
[14] = test system: SK-OV-3 ovarian
[15] = test system: UACC-62 melanoma
[16] = test system: HCT-15 colon
[17] = test system: PC-3 prostate
[18] = test system: SN12C renal
[19] = test system: MCF7 breast
[20] = test system: MALME-3M melanoma
[21] = test system: MDA-MB-468 breast
[22] = test system: HOP-62 NSCLC
[23] = test system: UO-31 renal
[24] = test system: MDA-MB-231 breast
[25] = test system: TK-10 renal
[26] = test system: DU-145 prostate
[27] = test system: 786-0 renal
[28] = test system: HL-60(TB) leukemia

O=C(Nc1cccc(Cl)c1)Nc1ncc(CCNc2ncnc3ccsc23)s1
GI50 [1]: 2.44 µM
TGI [1]: 11 µM
GI50 [2]: 1.34 µM
TGI [2]: 14.1 µM
GI50 [3]: 1.79 µM
TGI [3]: 14.8 µM
GI50 [4]: 9.02 µM
TGI [4]: 21.3 µM
GI50 [5]: 1.08 µM
TGI [5]: 2.53 µM
GI50 [6]: 10.3 µM
TGI [6]: 22 µM
GI50 [7]: 2.42 µM
TGI [7]: 14.5 µM
GI50 [8]: 2.2 µM
TGI [8]: 12 µM
GI50 [9]: 0.174 µM
TGI [9]: 15 µM
GI50 [10]: 4.06 µM
TGI [10]: 17 µM
GI50 [11]: 0.118 µM
TGI [11]: 13.2 µM
GI50 [12]: 4.81 µM
TGI [12]: 18.3 µM
GI50 [13]: 1.25 µM
TGI [13]: 13.8 µM
GI50 [14]: 5.02 µM
TGI [14]: 19 µM
GI50 [15]: 1 µM
TGI [15]: 16 µM
GI50 [16]: 1.47 µM
TGI [16]: 15.6 µM
GI50 [17]: 3.15 µM
TGI [17]: 13.2 µM
GI50 [18]: 3.01 µM
TGI [18]: 18.2 µM
GI50 [19]: 1.49 µM
TGI [19]: 13 µM
GI50 [20]: 6.41 µM
TGI [20]: 19.5 µM
GI50 [21]: 0.0283 µM
TGI [21]: 0.242 µM
GI50 [22]: 0.356 µM
TGI [22]: 11 µM
GI50 [23]: 3.5 µM
TGI [23]: 19.7 µM
GI50 [24]: 8.07 µM
TGI [24]: 20.8 µM
GI50 [25]: 9.81 µM
TGI [25]: 21.6 µM
GI50 [26]: 4.52 µM
TGI [26]: 18.1 µM
GI50 [27]: 1.97 µM
TGI [27]: 11.4 µM
GI50 [28]: < 0.01 µM
TGI [28]: 3.63 µM
